These are literature values, as cited in patent US20100022590A1, “Novel compounds” (BIOVITRUM AB (publ.), priority 2008, published 2010).

The test system of series [1] is intraocular pressure (IOP). The note with it: oral administration, healthy volunteers.
Series [2] concerns intraocular pressure (IOP). The note with it: orally administered, patients with ocular hypertension.

Molecules are shown by their SMILES.

As to `CC1(C)[C@@H](OC(=O)CCC(=O)O)CC[C@]2(C)[C@H]3C(=O)C=C4[C@@H]5C[C@@](C)(C(=O)O)CC[C@]5(C)CC[C@@]4(C)[C@]3(C)CC[C@@H]12` [carbenoxolone], in series [1], the “reduction of intraocular pressure (IOP)” value is listed as 20%. For the same compound, in series [2], the IOP reduction is 10%.
